From ChEMBL document CHEMBL1201862, “PubChem BioAssay data set” (2004)
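Protocol summary: plate cells (96-well), add compound at 5 concentrations, incubate 48 h, interpolate endpoints linearly. Here, GI50 denotes the concentration required for 50% inhibition of growth.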 Calls of active or inactive are those of the source. Rule as the data show it: active = GI50 up to about 1.1 µM and inactive = higher.

How the values were obtained:
Assay in all cases: NCI-60 cell line screen, 48 h
[1] = test system: KM12
[2] = test system: OVCAR-4
[3] = test system: HL-60
[4] = test system: U-251
[5] = test system: HT-29
[6] = test system: OVCAR-8
[7] = test system: SK-OV-3
[8] = test system: NCI-H23
[9] = test system: SF-539
[10] = test system: SK-MEL-2
[11] = test system: HCC 2998
[12] = test system: SF-268
[13] = test system: SK-MEL-28
[14] = test system: HOP-18
[15] = test system: LOX IMVI
[16] = test system: CAKI-1
[17] = test system: SNB-78
[18] = test system: A549
[19] = test system: HOP-62
[20] = test system: SW-620
[21] = test system: DLD-1
[22] = test system: UACC-62
[23] = test system: RXF 393
[24] = test system: HOP-92
[25] = test system: K562
[26] = test system: OVCAR-5
[27] = test system: KM-20L2
[28] = test system: MCF7
[29] = test system: SNB-75
[30] = test system: DMS-273
[31] = test system: UACC-257
[32] = test system: NCI-H460
[33] = test system: M19-MEL
[34] = test system: Malme-3M
[35] = test system: SK-MEL-5
[36] = test system: SNB-19
[37] = test system: DMS-114
[38] = test system: COLO 205
[39] = test system: RPMI-8226
[40] = test system: NCI/ADR-RES
[41] = test system: SF-295
[42] = test system: HCT-116
[43] = test system: MOLT-4
[44] = test system: SN12C
[45] = test system: HCT-15
[46] = test system: NCI-H522
[47] = test system: EKVX
[48] = test system: XF498
[49] = test system: IGROV-1
[50] = test system: CCRF-CEM
[51] = test system: OVCAR-3
[52] = test system: UO-31
[53] = test system: A498
[54] = test system: NCI-H226
[55] = test system: 786-0
[56] = test system: SR
[57] = test system: LXFL 529
[58] = test system: TK-10
[59] = test system: ACHN

## O=NN(CCF)C(=O)NC1CC2CCC1C2 (stereo not given)
[1]
  GI50: > 100 µM (inactive)
[2]
  GI50: > 100 µM (inactive)
[3]
  GI50: 38.7 µM (inactive)
[4]
  GI50: > 100 µM (inactive)
[5]
  GI50: > 100 µM (inactive)
[6]
  GI50: > 100 µM (inactive)
[7]
  GI50: > 100 µM (inactive)
[8]
  GI50: > 100 µM (inactive)
[9]
  GI50: > 100 µM (inactive)
[10]
  GI50: > 100 µM (inactive)
[11]
  GI50: > 100 µM (inactive)
[12]
  GI50: > 100 µM (inactive)
[13]
  GI50: > 100 µM (inactive)
[14]
  GI50: > 100 µM (inactive)
[15]
  GI50: 84.7 µM (inactive)
[16]
  GI50: > 100 µM (inactive)
[17]
  GI50: > 100 µM (inactive)
[18]
  GI50: > 100 µM (inactive)
[19]
  GI50: > 84.1 µM (inactive)
[20]
  GI50: > 100 µM (inactive)
[21]
  GI50: > 87.7 µM (inactive)
[22]
  GI50: 86.9 µM (inactive)
[23]
  GI50: > 100 µM (inactive)
[24]
  GI50: > 100 µM (inactive)
[25]
  GI50: > 53 µM (inactive)
[26]
  GI50: > 100 µM (inactive)
[27]
  GI50: > 100 µM (inactive)
[28]
  GI50: 98.9 µM (inactive)
[29]
  GI50: > 100 µM (inactive)
[30]
  GI50: > 100 µM (inactive)
[31]
  GI50: > 100 µM (inactive)
[32]
  GI50: > 100 µM (inactive)
[33]
  GI50: > 100 µM (inactive)
[34]
  GI50: > 100 µM (inactive)
[35]
  GI50: > 100 µM (inactive)
[36]
  GI50: > 100 µM (inactive)
[37]
  GI50: > 100 µM (inactive)
[38]
  GI50: > 100 µM (inactive)
[39]
  GI50: > 54.3 µM (inactive)
[40]
  GI50: > 100 µM (inactive)
[41]
  GI50: > 100 µM (inactive)
[42]
  GI50: > 100 µM (inactive)
[43]
  GI50: > 100 µM (inactive)
[44]
  GI50: > 100 µM (inactive)
[45]
  GI50: > 74.3 µM
[46]
  GI50: 73.6 µM (inactive)
[47]
  GI50: > 100 µM (inactive)
[48]
  GI50: < 0.01 µM (active)
[49]
  GI50: > 72.9 µM (inactive)
[50]
  GI50: 38.3 µM (inactive)
[51]
  GI50: > 100 µM (inactive)
[52]
  GI50: > 100 µM (inactive)
[53]
  GI50: > 100 µM (inactive)

## COC(=O)C(CC(=O)c1cc2c(cc1I)OCO2)Cc1cc(OC)c(OC)c(OC)c1I (stereo not given)
[1]
  GI50: 71.6 µM (inactive)
[3]
  GI50: 16.7 µM (inactive)
[4]
  GI50: 65.6 µM (inactive)
[5]
  GI50: > 100 µM (inactive)
[6]
  GI50: > 100 µM (inactive)
[7]
  GI50: > 100 µM (inactive)
[8]
  GI50: 45.6 µM (inactive)
[9]
  GI50: > 100 µM (inactive)
[10]
  GI50: > 100 µM (inactive)
[54]
  GI50: > 100 µM (inactive)
[11]
  GI50: > 100 µM (inactive)
[12]
  GI50: > 100 µM (inactive)
[13]
  GI50: > 100 µM (inactive)
[14]
  GI50: > 100 µM (inactive)
[15]
  GI50: > 100 µM (inactive)
[16]
  GI50: 25 µM (inactive)
[18]
  GI50: > 100 µM (inactive)
[19]
  GI50: > 100 µM (inactive)
[20]
  GI50: > 100 µM (inactive)
[21]
  GI50: > 100 µM (inactive)
[22]
  GI50: 37.2 µM (inactive)
[23]
  GI50: 73.5 µM (inactive)
[24]
  GI50: 14.3 µM (inactive)
[25]
  GI50: > 100 µM (inactive)
[26]
  GI50: 2.88 µM (inactive)
[27]
  GI50: > 100 µM (inactive)
[30]
  GI50: > 100 µM (inactive)
[31]
  GI50: 16.4 µM (inactive)
[32]
  GI50: > 100 µM (inactive)
[33]
  GI50: > 100 µM (inactive)
[55]
  GI50: > 100 µM (inactive)
[56]
  GI50: 8.69 µM (inactive)
[34]
  GI50: > 100 µM (inactive)
[35]
  GI50: 13.6 µM (inactive)
[36]
  GI50: > 100 µM (inactive)
[37]
  GI50: 22.8 µM (inactive)
[38]
  GI50: > 100 µM (inactive)
[39]
  GI50: 8.13 µM (inactive)
[57]
  GI50: 12.2 µM (inactive)
[41]
  GI50: 16.8 µM (inactive)
[42]
  GI50: 19.2 µM (inactive)
[43]
  GI50: 8.67 µM (inactive)
[58]
  GI50: > 100 µM (inactive)
[59]
  GI50: 80.4 µM (inactive)
[44]
  GI50: > 100 µM (inactive)
[45]
  GI50: > 100 µM
[46]
  GI50: 9.06 µM (inactive)
[47]
  GI50: > 100 µM (inactive)
[48]
  GI50: > 100 µM (inactive)
[49]
  GI50: > 100 µM (inactive)
[50]
  GI50: > 100 µM (inactive)
[51]
  GI50: 7.21 µM (inactive)
